“And” between values parts separate entries of the source, which are not always exact repeats. Equal entries are not always repeated. Inconclusive results and toxic doses are left out. Cut-off read from the data, not from the text of the source: active = T/C of 150% or more; inactive = T/C below 125%.
Tested on: L1210 leukemia ip in BDF1 mice, survival T/C
Experiment: NCI In Vivo Anticancer Drug Screen. Data for tumor model L1210 Leukemia (intraperitoneal) in B6D2F1 (BDF1) mice
Conditions: endpoint: mean survival time, higher = longer survival
In short: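 Survival endpoint. Drug-treated group vs vehicle group, expressed as T divided by C. Tumor passaged by transplantation.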

[1] = dose: 100.0 mg/kg/injection, schedule: Q01DX009 (ip), vehicle: saline with Tween-80
[2] = dose: 200.0 mg/kg/injection, schedule: Q01DX009 (ip), vehicle: saline with Tween-80
[3] = dose: 400.0 mg/kg/injection, schedule: Q01DX009 (ip), vehicle: saline with Tween-80
[4] = dose: 100.0 mg/kg/injection, schedule: Q01DX001 (ip), vehicle: carboxymethylcellulose (CMC)
[5] = dose: 200.0 mg/kg/injection, schedule: Q01DX001 (ip), vehicle: carboxymethylcellulose (CMC)
[6] = dose: 400.0 mg/kg/injection, schedule: Q01DX001 (ip), vehicle: carboxymethylcellulose (CMC)
[7] = dose: 100.0 mg/kg/injection, schedule: Q04DX003 (ip), vehicle: saline with Tween-80
[8] = dose: 200.0 mg/kg/injection, schedule: Q04DX003 (ip), vehicle: saline with Tween-80
[9] = dose: 400.0 mg/kg/injection, schedule: Q04DX003 (ip), vehicle: saline with Tween-80
[10] = dose: 100.0 mg/kg/injection, schedule: Q04DX002 (ip), vehicle: other
[11] = dose: 200.0 mg/kg/injection, schedule: Q04DX002 (ip), vehicle: other
[12] = dose: 400.0 mg/kg/injection, schedule: Q04DX002 (ip), vehicle: other
[13] = dose: 100.0 mg/kg/injection, schedule: Q01DX001 (ip), vehicle: saline
[14] = dose: 200.0 mg/kg/injection, schedule: Q01DX001 (ip), vehicle: saline
[15] = dose: 400.0 mg/kg/injection, schedule: Q01DX001 (ip), vehicle: saline
[16] = dose: 100.0 mg/kg/injection, schedule: Q04DX002 (ip), vehicle: Klucel (hydroxypropylcellulose) (HPC)
[17] = dose: 200.0 mg/kg/injection, schedule: Q04DX002 (ip), vehicle: Klucel (hydroxypropylcellulose) (HPC)
[18] = dose: 400.0 mg/kg/injection, schedule: Q04DX002 (ip), vehicle: Klucel (hydroxypropylcellulose) (HPC)
[19] = dose: 100.0 mg/kg/injection, schedule: Q01DX009 (ip), vehicle: Klucel (hydroxypropylcellulose) (HPC)
[20] = dose: 100.0 mg/kg/injection, schedule: Q04DX003 (ip), vehicle: Klucel (hydroxypropylcellulose) (HPC)
[21] = dose: 200.0 mg/kg/injection, schedule: Q04DX003 (ip), vehicle: Klucel (hydroxypropylcellulose) (HPC)
[22] = dose: 400.0 mg/kg/injection, schedule: Q04DX003 (ip), vehicle: Klucel (hydroxypropylcellulose) (HPC)
[23] = dose: 100.0 mg/kg/injection, schedule: Q01DX009 (ip), vehicle: other

Measured: T/C

CC(=O)CC(C)=Nc1ccc([N+](=O)[O-])cc1.CC(=O)CC(C)=Nc1ccc([N+](=O)[O-])cc1.[Cu]
inactive: dose: 12.5 mg/kg/injection, schedule: Q01DX001 (ip), vehicle: saline with Tween-80 93 % of control | dose: 25.0 mg/kg/injection, schedule: Q01DX001 (ip), vehicle: saline with Tween-80 88 % of control | dose: 50.0 mg/kg/injection, schedule: Q01DX001 (ip), vehicle: saline with Tween-80 91 % of control

NC(CSS(=O)(=O)O)=NCCc1c[nH]c(=S)[nH]1
inactive: dose: 12.5 mg/kg/injection, schedule: Q04DX002 (ip), vehicle: Klucel (hydroxypropylcellulose) (HPC) 107 % of control | dose: 25.0 mg/kg/injection, schedule: Q04DX002 (ip), vehicle: Klucel (hydroxypropylcellulose) (HPC) 91 % of control

O=C(OCc1ccccc1)c1ccccc1
inactive: [1] 98 % of control | [2] 105 % of control | [3] 93 % of control

Cc1c(C(=O)O)c(C(=O)O)c(C)n1-c1ccccc1C(=O)O (tested in a mixture with another compound)
inactive: dose: 100.0 mg/kg/injection, schedule: Q04DX003 (ip), vehicle: saline 106 % of control | dose: 200.0 mg/kg/injection, schedule: Q04DX003 (ip), vehicle: saline 101 % of control

NNc1cc(=O)n2ccccc2n1
inactive: [4] 98 % of control | [5] 98 % of control | [6] 101 % of control

C(/C=C\c1ccccc1)=Nc1ccccc1
inactive: [7] 95 % of control | [8] 95 % of control | [9] 92 % of control

C=Cc1c2ccccc2cc2c1ccc1ccccc12
inactive: [10] 102 % of control | [11] 106 % of control | [12] 109 % of control

NC(c1ccccc1)(c1ccccc1)c1ccccc1
inactive: [13] 101 % of control | [14] 101 % of control | [15] 101 % of control

C1=C(c2ccccc2)N(C2CCCC2)C(c2ccccc2)=CN1Cc1ccccc1
inactive: [16] 100 % of control | [17] 95 % of control | [18] 97 % of control

O=C(Nc1ccc(S(=O)(=O)F)cc1)/C(=C/c1cccc([N+](=O)[O-])c1)c1ccccc1
inactive: [19] 106 % of control | dose: 200.0 mg/kg/injection, schedule: Q01DX009 (ip), vehicle: Klucel (hydroxypropylcellulose) (HPC) 94 % of control | dose: 400.0 mg/kg/injection, schedule: Q01DX009 (ip), vehicle: Klucel (hydroxypropylcellulose) (HPC) 100 % of control

CS(=O)(=O)OCCN(CCOS(C)(=O)=O)c1ccc(C=Nc2cccc(Cl)c2)c(Cl)c1
inactive: [20] 106 % of control | [21] 105 % of control | [22] 113 % of control

CC1(C)Oc2c(ccc(O)c2CN2CCCCC2)C2=C1CCCC2
inactive: [13] 89 % of control

CC1(CCC(=O)O)SCSCS1
inactive: [20] 97 % of control | [21] 90 % of control | [22] 92 % of control

CCOC(=O)/C(C#N)=C1/CCCN1
inactive: dose: 100.0 mg/kg/injection, schedule: Q01DX009 (ip), vehicle: saline 97 % of control | dose: 200.0 mg/kg/injection, schedule: Q01DX009 (ip), vehicle: saline 100 % of control | dose: 400.0 mg/kg/injection, schedule: Q01DX009 (ip), vehicle: saline 108 % of control

N#CCCc1c(O)ccc2ccccc12
inactive: [1] 105 % of control | [2] 102 % of control | [3] 105 % of control

C/C=C1\CN2CCc3c(n(C)c4ccccc34)C2CC1C(=O)OC (centres undefined)
inactive: [7] 101 % of control | [8] 88 % of control | [9] 106 % of control

CC(C)(NCCNC(C)(C)[P+](=O)O)[P+](=O)O
inactive: [20] 96 % of control | [21] 93 % of control | [22] 93 % of control

OC1OC(COCc2ccccc2)C(OCc2ccccc2)C1OCc1ccccc1 (centres undefined)
inactive: dose: 100.0 mg/kg/injection, schedule: Q01DX001 (ip), vehicle: saline with Tween-80 95 % of control | dose: 200.0 mg/kg/injection, schedule: Q01DX001 (ip), vehicle: saline with Tween-80 95 % of control

COC12CCCC1S(=O)(=O)C2 (centres undefined)
inactive: dose: 25.0 mg/kg/injection, schedule: Q01DX009 (ip), vehicle: saline with Tween-80 102 % of control | dose: 50.0 mg/kg/injection, schedule: Q01DX009 (ip), vehicle: saline with Tween-80 98 % of control

Cc1c2ccccc2c(C)c2c1cc(O)c1ccccc12
inactive: dose: 50.0 mg/kg/injection, schedule: Q01DX009 (ip), vehicle: Klucel (hydroxypropylcellulose) (HPC) 113 % of control | [19] 121 % of control

N#Cc1nccnc1Cl
inactive: dose: 12.5 mg/kg/injection, schedule: Q04DX003 (ip), vehicle: saline with Tween-80 96 % of control | dose: 25.0 mg/kg/injection, schedule: Q01DX009 (ip), vehicle: other 95 % of control | dose: 25.0 mg/kg/injection, schedule: Q04DX003 (ip), vehicle: saline with Tween-80 99 % of control | dose: 50.0 mg/kg/injection, schedule: Q01DX009 (ip), vehicle: other 93 % of control | dose: 50.0 mg/kg/injection, schedule: Q04DX003 (ip), vehicle: saline with Tween-80 86 % of control | [23] 109 % of control

O=C(Oc1ccccc1)c1cc(Br)ccc1O
inactive: [4] 97 % of control | [5] 95 % of control | [6] 100 % of control

COc1ccc(Cc2ccc(OC)c(OC)c2)cc1OC
inactive: dose: 200.0 mg/kg/injection, schedule: Q04DX003 (ip), vehicle: acetone 124 % of control | dose: 400.0 mg/kg/injection, schedule: Q04DX003 (ip), vehicle: acetone 100 % of control

N=c1ncn(C2OC(COP(=O)(O)O)C(O)C2O)c2nc[nH]c12 (centres undefined)
inactive: dose: 1.56 mg/kg/injection, schedule: Q01DX005 (ip), vehicle: water 102 % of control | dose: 6.25 mg/kg/injection, schedule: Q01DX005 (ip), vehicle: water 103 % of control | dose: 12.5 mg/kg/injection, schedule: Q01DX005 (ip), vehicle: water 105 % of control | dose: 25.0 mg/kg/injection, schedule: Q01DX005 (ip), vehicle: water 94 % of control

Clc1ccc(/C=N/N2CCN(/N=C/c3ccc(Cl)c(Cl)c3)CC2)cc1Cl
inactive: [13] 92 % of control | [14] 92 % of control | [15] 92 % of control

O=C(COc1cc(Cl)c(Cl)cc1Cl)Nc1ccc(Cl)cc1
inactive: [16] 103 % of control | [17] 106 % of control | [18] 103 % of control

O=C(NC(=S)NCc1ccncc1)c1ccccc1
inactive: [16] 100 % of control | [17] 95 % of control | [18] 92 % of control

O=C(Nc1ccc(Br)cc1)Nc1ccccc1Cl
inactive: dose: 100.0 mg/kg/injection, schedule: Q04DX002 (ip), vehicle: saline + alcohol 100 % of control | dose: 200.0 mg/kg/injection, schedule: Q04DX002 (ip), vehicle: saline + alcohol 94 % of control | dose: 400.0 mg/kg/injection, schedule: Q04DX002 (ip), vehicle: saline + alcohol 96 % of control

CCCNC(=O)Oc1ccc(C2CCCCC2)cc1
inactive: dose: 100.0 mg/kg/injection, schedule: Q01DX001 (ip), vehicle: other 100 % of control | [23] 104 % of control and 87 % of control | [16] 110 % of control | [10] 105 % of control and 109 % of control | dose: 100.0 mg/kg/injection, schedule: Q04DX003 (ip), vehicle: other 100 % of control | dose: 200.0 mg/kg/injection, schedule: Q01DX001 (ip), vehicle: other 100 % of control | dose: 200.0 mg/kg/injection, schedule: Q01DX009 (ip), vehicle: other 103 % of control and 111 % of control | [17] 100 % of control | [11] 95 % of control and 111 % of control | dose: 200.0 mg/kg/injection, schedule: Q04DX003 (ip), vehicle: other 102 % of control | dose: 400.0 mg/kg/injection, schedule: Q01DX001 (ip), vehicle: other 97 % of control | dose: 400.0 mg/kg/injection, schedule: Q01DX009 (ip), vehicle: other 101 % of control and 112 % of control | [12] 95 % of control and 107 % of control | dose: 400.0 mg/kg/injection, schedule: Q04DX003 (ip), vehicle: other 104 % of control
